From ChEMBL document CHEMBL1133395, “Novel oximes having 5-benzyl-2,4-thiazolidinedione as antihyperglycemic agents: synthesis and structure-activity relationship” (Bioorg Med Chem Lett, 2000)

Key:
[1] = target: T1, Peroxisome proliferator-activated receptor gamma (Homo sapiens, UniProt P37231)
T1 sequence (P37231 whole entry): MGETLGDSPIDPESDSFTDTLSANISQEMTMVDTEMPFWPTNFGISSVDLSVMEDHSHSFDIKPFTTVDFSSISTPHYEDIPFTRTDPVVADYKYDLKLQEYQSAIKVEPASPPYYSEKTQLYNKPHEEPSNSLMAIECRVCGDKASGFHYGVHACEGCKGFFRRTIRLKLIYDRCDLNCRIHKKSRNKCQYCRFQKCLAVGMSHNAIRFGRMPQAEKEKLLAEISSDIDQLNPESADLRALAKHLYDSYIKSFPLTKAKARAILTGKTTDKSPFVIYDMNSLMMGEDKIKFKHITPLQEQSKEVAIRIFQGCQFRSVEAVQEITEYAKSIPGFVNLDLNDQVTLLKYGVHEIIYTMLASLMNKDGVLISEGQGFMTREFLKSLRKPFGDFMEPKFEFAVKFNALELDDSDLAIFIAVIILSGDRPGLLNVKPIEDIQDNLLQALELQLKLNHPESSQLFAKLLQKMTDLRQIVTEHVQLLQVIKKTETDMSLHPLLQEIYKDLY
Description: Peroxisome proliferator activated receptor gamma agonistic activity in HepG2 cells.

Mus musculus = organism: Mus musculus; assay: Blood glucose lowering activity in hyperglycemic kk mice.; format: functional; set-up: concentration or dose not given beside the values

SMILES	EC50 [1]	Change (Mus musculus)
CC/C(=N\OCCOc1ccc(CC2SC(=O)NC2=O)cc1)c1ccc(-c2ccccc2)cc1 (stereo not drawn)	1.6 µM	67%
C/C(=N\OCCOc1ccc(CC2SC(=O)NC2=O)cc1)c1ccc(-c2ccncc2)cc1 (stereo not drawn)	1.6 µM	44%
CCC/C(=N\OCCOc1ccc(CC2SC(=O)NC2=O)cc1)c1ccc(-c2ccccc2)cc1 (stereo not drawn)	> 100 µM	29%
C/C(=N\OCCOc1ccc(CC2SC(=O)NC2=O)cc1)c1ccccc1-c1ccccc1 (stereo not drawn)	> 100 µM	23%
C/C(=N\OCCOc1ccc(CC2SC(=O)NC2=O)cc1)c1ccc(-c2ccccc2)nc1 (stereo not drawn)	–	58%
C/C(=N\OCCOc1ccc(CC2SC(=O)NC2=O)cc1)c1ccc(-c2ccccc2)cn1 (stereo not drawn)	1.1 µM	61%
C/C(=N\OCCCOc1ccc(CC2SC(=O)NC2=O)cc1)c1ccc(-c2ccccc2)cc1 (stereo not drawn)	> 100 µM	20%
C/C(=N\OCCOc1ccc(CC2SC(=O)NC2=O)cc1)c1ccc(-c2ccccc2)cc1 (stereo not drawn)	0.4 µM	67%
C/C(=N\OCCOc1ccc(CC2SC(=O)NC2=O)cc1)c1ccccn1 (stereo not drawn)	2.8 µM	67%
C/C(=N\OCCOc1ccc(CC2SC(=O)NC2=O)cc1)c1ccncc1 (stereo not drawn)	7.9 µM	48%
C/C(=N\OCCOc1ccc(CC2SC(=O)NC2=O)cc1)c1cccc(-c2ccccc2)c1 (stereo not drawn)	0.33 µM	42%
C/C(=N\OCCOc1ccc(CC2SC(=O)NC2=O)cc1)c1ccc(-c2cccnc2)cc1 (stereo not drawn)	0.8 µM	42%
C/C(=N\OCCOc1ccc(CC2SC(=O)NC2=O)cc1)c1ccc(-c2ccccn2)cc1 (stereo not drawn)	0.64 µM	58%
O=C1NC(=O)C(Cc2ccc(OCCO/N=C/c3ccc(-c4ccccc4)cc3)cc2)S1 (stereo not drawn)	> 100 µM	7%
C/C(=N\OCCOc1ccc(CC2SC(=O)NC2=O)cc1)c1ccccc1 (stereo not drawn)	1.7 µM	57%
C/C(=N\OCCOc1ccc(CC2SC(=O)NC2=O)cc1)c1cccnc1 (stereo not drawn)	2.8 µM	43%
CCc1ccc(CCOc2ccc(CC3SC(=O)NC3=O)cc2)nc1.Cl (stereo not drawn) [PIOGLITAZONE HYDROCHLORIDE]	–	42%
CN(CCOc1ccc(CC2SC(=O)NC2=O)cc1)c1ccccn1.O=C(O)/C=C\C(=O)O (stereo not drawn) [ROSIGLITAZONE MALEATE]	–	66%
